Source: ChEMBL document CHEMBL1126040 (J Med Chem, 1992)

What was measured:
[1] = target: Sodium-dependent dopamine transporter (Rattus norvegicus) (UniProt P23977); test: In vitro ability to inhibit the [3H]WIN-35428 binding to cocaine binding site on dopamine transporter in rat striatal membranes irreversibly after one wash.; type: cell membranes; parameters: concentration or dose not given beside the values; settings: Striatum; Membrane
[2] = target: Sodium-dependent dopamine transporter (Rattus norvegicus) (UniProt P23977); test: In vitro ability to inhibit the [3H]WIN-35428 binding to cocaine binding site on dopamine transporter in rat striatal membranes irreversibly after two washes.; type: cell membranes; parameters: concentration or dose not given beside the values; settings: Striatum; Membrane
[3] = target: Sodium-dependent dopamine transporter (Rattus norvegicus) (UniProt P23977); test: In vitro ability to inhibit the [3H]WIN-35428 binding to cocaine binding site on dopamine transporter in rat striatal membranes irreversibly after no wash.; type: cell membranes; parameters: concentration or dose not given beside the values; settings: Striatum; Membrane
[4] = target: Sodium-dependent dopamine transporter (Rattus norvegicus) (UniProt P23977); test: In vitro ability to inhibit the [3H]WIN-35428 binding to cocaine binding site on dopamine transporter in rat striatal membranes irreversibly after three washes.; type: cell membranes; parameters: concentration or dose not given beside the values; settings: Striatum; Membrane
[5] = target: Sodium-dependent dopamine transporter (Rattus norvegicus, UniProt P23977); test: Inhibition of […] binding to the dopamine transporter in rat striatal membranes.; type: cell membranes, Membrane
Chain of Sodium-dependent dopamine transporter (P23977 whole entry): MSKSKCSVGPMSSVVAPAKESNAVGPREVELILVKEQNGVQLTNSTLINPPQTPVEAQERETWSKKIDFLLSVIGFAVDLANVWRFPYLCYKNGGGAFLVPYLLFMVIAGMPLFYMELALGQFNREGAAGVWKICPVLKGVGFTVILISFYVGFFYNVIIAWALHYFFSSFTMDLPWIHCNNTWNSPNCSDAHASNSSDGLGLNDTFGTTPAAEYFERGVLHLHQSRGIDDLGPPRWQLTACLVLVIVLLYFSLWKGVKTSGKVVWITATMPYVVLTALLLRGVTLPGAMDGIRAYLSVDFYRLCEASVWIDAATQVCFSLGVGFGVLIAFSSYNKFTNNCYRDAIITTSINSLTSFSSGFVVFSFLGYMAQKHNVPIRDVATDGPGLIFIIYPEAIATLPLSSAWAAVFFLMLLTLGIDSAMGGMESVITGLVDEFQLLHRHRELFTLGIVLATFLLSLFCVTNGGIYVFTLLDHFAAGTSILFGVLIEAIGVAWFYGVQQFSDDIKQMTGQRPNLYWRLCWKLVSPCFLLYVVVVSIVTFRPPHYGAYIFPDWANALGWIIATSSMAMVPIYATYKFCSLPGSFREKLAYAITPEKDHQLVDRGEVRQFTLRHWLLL

Chain of Sodium-dependent dopamine transporter (Rattus norvegicus) (P23977 whole entry): as above

| Compound | Control [1] [%] | Control [2] [%] | Control [3] [%] | Control [4] [%] | IC50 [5] [nM] |
| --- | --- | --- | --- | --- | --- |
| COC(=O)[C@H]1[C@@H](OC(=O)c2ccccc2)C[C@@H]2CC[C@H]1N2C | 85 | 79 | 43 |  |  |
| CN1C2CC[C@@H]1C[C@H](OC(=O)c1ccccc1)[C@@H]2C(=O)OCCc1ccc(NC(=O)CBr)cc1 | 34 | 33 | 22 | 38 | 61 |
| CN1C2CC[C@@H]1C[C@H](OC(=O)c1ccccc1)[C@@H]2C(=O)OCCc1ccc(N=C=S)cc1 |  |  |  |  | 196 |
| CN1C2CC[C@@H]1C[C@H](c1ccc(Cl)cc1)[C@@H]2C(=O)OCCc1ccc(N=[N+]=[N-])cc1 | 19 | 24 | 21 | 26 | 6.17 |
| CN1C2CC[C@@H]1C[C@H](c1ccc(Cl)cc1)[C@@H]2C(=O)OCCc1ccc(N)cc1 |  |  |  |  | 2.16 |
| CN1C2CC[C@@H]1C[C@H](OC(=O)c1ccccc1)[C@@H]2C(=O)OCCc1ccc(N=[N+]=[N-])cc1 | 30 | 45 | 23 | 49 | 227 |
| COC(=O)[C@@H]1C2CC[C@H](C[C@@H]1c1ccc(N=[N+]=[N-])c(I)c1)N2C | 2 | 5 | 0 | 5 | 4.93 |
| CN1C2CC[C@@H]1C[C@H](c1ccc(Cl)cc1)[C@@H]2C(=O)OCCc1ccc([N+](=O)[O-])cc1 |  |  |  |  | 2.71 |
| CN1C2CC[C@@H]1C[C@H](c1ccc(Cl)cc1)[C@@H]2C(=O)OCCc1ccc(N=[N+]=[N-])c(I)c1 | 14 | 22 | 14 | 16 | 14.5 |
| CN1C2CC[C@@H]1C[C@H](c1ccc(Cl)cc1)[C@@H]2C(=O)OCCc1ccc(N)c(I)c1 |  |  |  |  | 2.51 |
| CN1C2CC[C@@H]1C[C@H](c1ccc(Cl)cc1)[C@@H]2C(=O)OCCc1ccc(NC(=O)CBr)cc1 | 23 | 26 | 14 | 34 | 1.73 |
| CN1C2CC[C@@H]1C[C@H](OC(=O)c1ccccc1)[C@@H]2C(=O)OCCc1ccccc1 |  |  |  |  | 248 |
| COC(=O)[C@@H]1C2CC[C@H](C[C@@H]1c1ccc(N)c(I)c1)N2C |  |  |  |  | 1.35 |
| CN1C2CC[C@@H]1C[C@H](OC(=O)c1ccccc1)[C@@H]2C(=O)OCCc1ccc(N)cc1 |  |  |  |  | 72 |
| CN1C2CC[C@@H]1C[C@H](OC(=O)c1ccccc1)[C@@H]2C(=O)OCCCc1ccccc1 |  |  |  |  | 139 |
| CN1C2CC[C@@H]1C[C@H](OC(=O)c1ccccc1)[C@@H]2C(=O)OCCc1ccc([N+](=O)[O-])cc1 |  |  |  |  | 601 |
| CN1C2CC[C@@H]1C[C@H](c1ccc(Cl)cc1)[C@@H]2C(=O)OCCc1ccc(N=C=S)cc1 | 29 | 26 | 24 | 30 | 5.3 |
